Residues, ends and D or L forms follow the SMILES beside them. *: point of attachment. Myristoyl = CCCCCCCCCCCCCC(=O)*
Assays:
[1] = Dissolution and storage stability of lyophilized powder; type: physicochemical
Experimental: The M3mP6 HLPN thus generated achieves a high M3mP6 peptide loading reaching >80% of total nanoparticle (mol/mol) (when such percentage of peptide was incorporated into during the process) and a high peptide concentration of >10 mM in injectable suspension. As analyzed by dynamic light scattering (DLS), the vast majority (99.8-100%) of these lipid-stabilized, PEG-coated M3mP6 HLPN have a particle size ranging between 6 nm to 25 nm (in different preparations) with occasional appearance of very small populations (0-0.2%) with larger diameters (~50-500 nm) (FIGS. 5A-5F).

[2] = tested on: tail bleeding time in mice; test: Tail bleeding time; type: in vivo; conditions: same concentrations that inhibit occlusive thrombosis
[3] = in vivo; conditions: male, rat, iv
[4] = Rat 5-day infusion pharmacokinetic study; conditions: for AUC(0-t) / Tmax / clearance: plasma; for Css: steady-state plasma concentration during continuous IV infusion; for λz: terminal elimination rate constant
[5] = tested on: laser-induced cremaster arteriolar thrombosis; test: Laser-induced cremaster arteriolar thrombosis model; type: in vivo, mice; conditions: laser-induced mouse cremaster arterial thrombosis model; for intravascular coagulation (fibrin clot formation / fibrin deposition): site of vascular injury
From the text: This example illustrates the comparative effect of M3mP6 HLPN (prepared substantially as described in Example 1) and cangrelor on intracvascular coagulation using laser-induced cremaster arteriolar thrombosis model in mice.
It was recently shown that outside-in signaling plays an important role in not only platelet thrombus formation but also intravascular coagulation under flow shear, an important aspect of thrombosis. […] Thus, we tested the effect of M3mP6 HLPN generated by vortex-mixing-lyophilization on platelet thrombus formation and intravascular coagulation in comparison with cangrelor using the laser-induced cremaster arterial thrombosis model.

In the case of `CCCCCCCCCCCCCC(=O)N[C@@H](Cc1ccccc1)C(=O)N[C@@H](CCC(=O)O)C(=O)N[C@@H](CCC(=O)O)C(=O)N[C@@H](CCC(=O)O)C(=O)N[C@@H](CCCNC(=N)N)C(=O)N[C@@H](CC(C)C)C(=O)O` [M3mP6, Myr-FEEERL (SEQ ID NO: 8)] (Myristoyl-FEEERL-OH; C-terminus assumed), the storage stability ([1]; lyophilized powder at room temperature (22° C.)) is reported as “at least 2 weeks”, the “storage stability (similar DLS profile and pharmacological effect)” value ([1]; lyophilized powder stored at −20° C.) is reported as “more than 18 months” and the tail bleeding time [2] is reported as “without affecting bleeding”. It also gave a half-life [3] of 234 min, a Vd ([4]; female, in vivo, iv) of 0.2 L/kg and an AUC(0-t) ([4]; female, intravenous) of 17600 µg·h/mL. It also gave a Tmax ([4]; female, intravenous) of 4.8 min, a clearance ([4]; female, iv, CL CLAUC, clearance estimated from AUC0-∞) of 0.7 mL/min/kg and a clearance ([4]; female, iv, CL CLcss, clearance estimated from Css) of 0.8 mL/min/kg. It also gave a Css ([4]; female) of 131.117 µg/mL, a t1/2-λz ([4]; female, terminal elimination half-life) of 186 min and a λz ([4]; female) of 0.223 h⁻¹. It also gave a Vλz ([4]; male, distribution volume) of 0.46 L/kg, an AUC(0-t) ([4]; male, intravenous) of 9490 µg·h/mL and a Tmax ([4]; male, intravenous) of 4.8 min. It also gave a clearance ([4]; male, intravenous, CL CLAUC, clearance estimated from AUC0-∞) of 1.4 mL/min/kg, a clearance ([4]; male, iv, CL CLcss, clearance estimated from Css) of 1.3 mL/min/kg and a Css ([4]; male) of 77.621 µg/mL. It also gave a λz ([4]; male) of 0.177 h⁻¹.
For `CSCCNc1nc(SCCC(F)(F)F)nc2c1ncn2[C@@H]1O[C@H](COP(=O)(O)OP(=O)(O)C(Cl)(Cl)P(=O)(O)O)[C@@H](O)[C@H]1O` [cangrelor], the platelet thrombus formation [5] was “similarly potent effects”, the “intravascular coagulation (fibrin clot formation / fibrin deposition)” value [5] was “moderate effect” and the “intravascular coagulation (fibrin clot formation / fibrin deposition)” value ([5]; listed as Cangrelor) was “only partially inhibited”. The platelet thrombus formation ([5]; listed as Cangrelor) was “similarly inhibited”.
